Test results reported in US20240325393A1, “TOFACITINIB-CONTAINING ANHYDROUS ELASTOMER-BASED GEL FORMULATIONS” (VYNE THERAPEUTICS INC., priority 2020, published 2024).
In brackets after ≈: the same amount, converted by molar mass. Like-named read-outs stand apart in the source and are kept apart here.

Tests used:
[1] = tested on: Hartley-derived albino guinea pigs
[2] = Interfacial tension predictions (Washburn method, Fowkes theory); assay type: physicochemical
Method: Based on the contact angle data, the surface energy is calculated and polar and dispersive components of surface energy as well as surface polarity are estimated.
A surface tension study was performed to characterize active agent samples, various oils and specific formulations for Surface energy with polar and dispersive components. The Washburn method was used to determine contact angles and the Fowkes theory was used to calculate surface energies.
Surface tension measurements were performed on several oils and the following formulations: OT1.0016P (elastomer-MCT oil-based formulation), OT1.0021P (elastomer-based formulation comprising a combination of MCT oil, squalane and isopropyl isostearate) and OT1.0022P (elastomer-based formulation comprising a combination of MCT oil, squalane and oleyl alcohol).

[3] = AD murine model: body weight
Method: Atopic Dermatitis is induced by once daily application for 38 days of 100 μl of 0.5% 2,4-dinitrochlorobenzene (DNCB) solution onto the shaved back skin of mice. Starting on day 32, test formulations are administered once daily onto the shaved back skin of mice in addition to DNCB. Several measurements are taken at different time points:
Daily from Day 32: Body weight, mortality, behaviour (scratching), general condition, AD index.

[4] = Toxicokinetic / pK evaluation in Gottingen Minipigs (plasma tofacitinib, whole blood fingolimod and fingolimod phosphate); conditions: minipig, topical
Method: (§1) The animals are not fasted prior to blood collection, with the exception of the intervals that coincide with fasting for clinical pathology collections.
(§2) If necessary, the samples are frozen on dry ice prior to being placed in the freezer. […] Samples are stored at the bioanalytical laboratories in a freezer set to maintain −80±10° C. until analysis.
(§3) Samples designated for analysis of fingolimod and fingolimod phosphate are mixed gently, lysed with an equal volume of deionized water, vortexed for approximately 1 minute, divided into two approximately equal aliquots, transferred to uniquely labeled polypropylene tubes and frozen in a freezer set to maintain −70° C. If necessary, the samples are frozen on dry ice prior to being placed in the freezer. The samples for fingolimod analysis are shipped with a temperature monitoring device to bioanalytical laboratories. Samples are stored at the bioanalytical laboratories in a freezer set to maintain −75±15° C. until analysis.
(§4) Whole blood is analyzed for concentration of fingolimod and fingolimod phosphate using a validated analytical procedure for the simultaneous quantitation of both analytes.
(§5) TK samples collected on Days 49 and 56 from recovery animals in Groups 1, 2, 3, 5, and 6 are also analyzed. Statistical analyses including regression analysis and descriptive statistics including arithmetic means and standard deviations, accuracy, and precision are performed. Incurred sample reanalysis may be performed as part of this study according to the Test Site SOPs.
(§6) A non-compartmental approach consistent with the dermal route of administration is used for parameter estimation.
(§7) Partial AUCs (between 2 defined sample times), and corresponding dose-normalized values, are derived and reported to aid interpretation. Descriptive statistics (e.g., number, arithmetic mean, median, standard deviation, standard error, coefficient of variation) are reported as deemed appropriate, as well as ratios for appropriate grouping and sorting variables (e.g. AUC and/or Cmax female/male ratios, AUC and/or Cmax metabolite/parent drug ratios).

[5] = Skin penetration (IVPT), vertical diffusion cell, LC-MS/MS; assay type: in vitro ADME, human; conditions: for Dermis concentration, μg/g Based on the Mean (n = 5) / Epidermis concentration, μg/g Based on the Mean (n = 5): estimated, skin 500 μm; for Dermis concentration, μg/g Based on the Mean (n = 5) / Epidermis concentration, μg/g Based on the Mean (n = 5) / estimated concentration of active in epidermis: epidermis assumed 80 μm, density 1.0 g/cm^3; for fingolimod concentration in receptor fluid: quantitation limit of LC-MS method
Method: The skin is dosed with approx. 6 mg of formulation to achieve a dose of ˜10 mg/cm2. Receptor solution is collected at pre-determined intervals over the course of 24 hours and analyzed using a liquid chromatography with tandem mass spectrometry (LC-MS/MS) analytical method.
Following 24 hours, the residual formulation is removed from the surface of the skin. The skin surface is tape-stripped up to five times to remove residual formulation and the top of the skin surface layers (Stratum Corneum). The epidermis is then heat-separated from the dermis. The active agent is extracted from the skin layers and the amount of active agent delivered to the epidermis and dermis is then determined by LC-MS/MS.

[6] = Visual solubility determination of Fingolimod free base in organic solvents at RT; assay type: physicochemical; conditions: for solubility: organic solvent or mixture, thermodynamic from solid, visual determination at RT
Method: A visual solubility evaluation of Fingolimod free base was performed.

[7] = Chemical stability of topical formulations (HPLC); assay type: physicochemical
Method: Where another active agent such as fingolimod is present in the formulations the samples are analysed for that active agent and its degradation products by HPLC. […] The gradient elution is employed.

in vivo = conditions: both, Gottingen, minipig, plasma (tofacitinib); whole blood (fingolimod), topical
Method: as §1, §2, §3, §4, §5, §6, §7

[8] = tested on: Atopic Dermatitis induced by 2,4-dinitrochlorobenzene (DNCB); test: AD murine model: AD index (ADI, mADI), behaviour, histological analysis of skin; assay type: in vivo; conditions: DNCB induced mice, Example 41 (combination study)
Excerpt: As used herein, “Atopic Dermatitis Index (ADI)” refers to the sum of the scores of four factors consisting of: (1) the presence of erythema/haemorrhage on the skin, (2) edema/thickening of the skin, (3) excoriation/erosion of the skin and (4) dryness/peeling of the skin at the area of induction of atopic dermatitis. The sum of the scores of these factors provides a combined ADI, on a scale of 0 to 12. […]
The presence of erythema/haemorrhage is scored based on the following scoring grid: • 0=no or no more erythema/haemorrhage on the skin, • 1=weak erythema/haemorrhage on the skin, • 2=moderate erythema/haemorrhage on the skin, • 3=severe erythema/haemorrhage on the skin.
The presence of edema/thickening is scored based on the following scoring grid: • 0=no or no more edema/thickening of the skin, • 1=weak edema/thickening of the skin, • 2=moderate edema/thickening of the skin, • 3=severe edema/thickening of the skin.
The presence of excoriation/erosion is scored based on the following scoring grid: • 0=no or no more excoriation/erosion of the skin, • 1=weak excoriation/erosion of the skin, • 2=moderate excoriation/erosion of the skin, • 3=severe excoriation/erosion of the skin. […]

[9] = tested on: S1P receptors (S1P1 and S1P3-5); conditions: cited from earlier work
[10] = Dermis, formulation of Table 42 (fingolimod HCl […])
[11] = Dermis, formulation of Table 43a
[12] = Epidermis, formulation of Table 43a
[13] = Receptor fluid, formulation of Table 42 (fingolimod HCl […])
[14] = Receptor fluid, formulation of Table 43a
[15] = formulation with 1.0% tofacitinib citrate and […] fingolimod hydrochloride
[16] = 2 months at 40° C., formulation of Table 38
[17] = 2 months at 50° C., formulation of Table 38
[18] = 3 weeks at 5° C., formulation of Table 38
[19] = 3 weeks at 50° C., formulation of Table 38

Question: What does the source list for `O=[N+]([O-])c1ccc(Cl)c([N+](=O)[O-])c1` [DNCB, 2,4-dinitrochlorobenzene]?
Answer: Group mean dermal scores, test animals ([1]; challenge with 0.05% w/v DNCB in acetone and ethanol, control animals 0.25): 0.6; Group mean dermal scores, test animals ([1]; challenge with 0.1% w/v DNCB in acetone and ethanol, control animals 0.375): 1.45

Question: What does the source list for `C[C@@H]1CCN(C(=O)CC#N)C[C@@H]1N(C)c1ncnc2[nH]ccc12.O=C(O)CC(O)(CC(=O)O)C(=O)O` [Tofacitinib Citrate micronized Lot TOF0000004-04]?
Answer: Interfacial Tension ([2]; with OT1.0016P): 2.72 mN/m; Interfacial Tension ([2]; with OT1.0021P): 2.17 mN/m; Interfacial Tension ([2]; with OT1.0022P): 1.95 mN/m; Interfacial Tension ([2]; with Stainless Steel): 2.50 mN/m

Question: With `C[C@@H]1CCN(C(=O)CC#N)C[C@@H]1N(C)c1ncnc2[nH]ccc12.O=C(O)CC(O)(CC(=O)O)C(=O)O` [Tofacitinib Citrate non-micronized Lot TOF0000004] as the compound, how does the “Interfacial Tension” value ([2]; with OT1.0016P) read?
Answer: Its value is 1.88 mN/m.

Question: And the “Interfacial Tension” value ([2]; with OT1.0021P)?
Answer: Its value is 1.45 mN/m.

Question: And the “Interfacial Tension” value ([2]; with Stainless Steel)?
Answer: Its value is 1.62 mN/m.

Question: For `CC1(C)O[C@@H]2C[C@H]3[C@@H]4CCC5=CC(=O)C=C[C@]5(C)[C@@]4(F)[C@@H](O)C[C@]3(C)[C@]2(C(=O)CO)O1` [Triamcinolone acetonide], which “Mean body weights values: Weight D 32” value ([3]; DNCB induced mice, Example 41, D 32 (treatment start)) is on record?
Answer: The value was 18.31.

Question: And the “Mean body weights values: Weight D 39” value ([3]; DNCB induced mice, Example 41, D 39)?
Answer: The value was 15.66.

Question: What about the “Mean Body Weight Change d 39 − d 32” value ([3]; DNCB induced mice, Example 41, (+) weight gain, (−) weight loss) of the same compound?
Answer: Its value is −2.65.

Question: With `CCCCCCCCc1ccc(CCC(N)(CO)CO)cc1` [fingolimod, 2-amino-2-[2-(4-octylphenyl)ethyl]propane-1,3-diol] as the compound, how does the AUC(0-t) [4] read?
Answer: Its AUC(0-t) is 3.73 ng·h/mL.

Question: What about the Cmax [4] of the same compound?
Answer: The Cmax was 0.467 ng/mL.

Question: And the “Amount of Fingolimod recovered, % applied dose, Mean (n = 5)” value (“Amount … % applied dose, Mean (n = 5)” for short) [5, 10]?
Answer: The value was 2.59%.

Question: What about the “Amount of Fingolimod recovered, ng, Mean (n = 5)” value (“Amount … ng, Mean (n = 5)” below) [5, 10] of the same compound?
Answer: Its value is 49.16 ng.

Question: And the “Amount … % applied dose, Mean (n = 5)” value [5, 11]?
Answer: The value was 1.44%.

Question: And the “Amount … ng, Mean (n = 5)” value [5, 11]?
Answer: The value was 14.82 ng.

Question: And the “Amount … % applied dose, Mean (n = 5)” value ([5]; Epidermis, formulation of Table 42 (fingolimod HCl […]))?
Answer: Its value is 1.98%.

Question: And the “Amount … % applied dose, Mean (n = 5)” value [5, 12]?
Answer: The value was 1.59%.

Question: What about the “Amount … ng, Mean (n = 5)” value [5, 12] of the same compound?
Answer: The value was 16.21 ng.

Question: What about the “Amount … % applied dose, Mean (n = 5)” value [5, 13] of the same compound?
Answer: Its value is “ND (ND—not detected (below LOQ of 0.25 ng/mL))”.

Question: What about the “Amount … ng, Mean (n = 5)” value [5, 13] of the same compound?
Answer: Its value is “ND (ND—not detected (below LOQ of 0.25 ng/mL))”.

Question: And the “Amount … % applied dose, Mean (n = 5)” value [5, 14]?
Answer: Its value is “ND (ND—not detected (below LOQ of 0.25 ng/ml))”.

Question: What about the “Amount … ng, Mean (n = 5)” value [5, 14] of the same compound?
Answer: The value was “ND (ND—not detected (below LOQ of 0.25 ng/ml))”.

Question: And the “Dermis concentration, μg/g Based on the Mean (n = 5)” value ([5]; formulation of Table 43a)?
Answer: The value was 0.6 µg/g.

Question: What about the “Epidermis concentration, μg/g Based on the Mean (n = 5)” value ([5]; formulation of Table 43a) of the same compound?
Answer: The value was 3.4 µg/g.

Question: And the “fingolimod concentration in receptor fluid” value ([5]; formulation containing […] of fingolimod hydrochloride)?
Answer: Its value is less than 0.25 ng/mL.

Question: What about the “estimated concentration of active in dermis” value [5, 15] of the same compound?
Answer: Its value is 0.6 µg/mL.

Question: And the “estimated concentration of active in epidermis” value [5, 15]?
Answer: The value was 3.4 µg/g.

Question: And the “fingolimod concentration in receptor fluid” value [5, 15]?
Answer: Its value is less than 0.25 ng/mL.

Question: What about the visual solubility ([6]; alcohols, RT) of the same compound?
Answer: Its visual solubility is “very good solubility”.

Question: What about the visual solubility ([6]; most of organic solvents tested, RT) of the same compound?
Answer: Its visual solubility is “good solubility”.

Question: What about the solubility ([6]; 2-Methyl tetrahydrofurane) of the same compound?
Answer: Its solubility is 10000 µg/mL (≈ 32.5 mM).

Question: And the solubility ([6]; Acetone)?
Answer: The solubility was 5000 µg/mL (≈ 16.3 mM).

Question: What about the solubility ([6]; Acetonitrile) of the same compound?
Answer: Its solubility is 1800 µg/mL (≈ 5.85 mM).

Question: What about the solubility ([6]; Dichloromethane) of the same compound?
Answer: The solubility was 6700 µg/mL (≈ 21.8 mM).

Question: And the solubility ([6]; Ethyl acetate)?
Answer: Its solubility is 4000 µg/mL (≈ 13 mM).

Question: What about the solubility ([6]; Isopropanol) of the same compound?
Answer: Its solubility is 20000 µg/mL (≈ 65 mM).

Question: And the solubility ([6]; Methyl ethyl ketone)?
Answer: The solubility was 1200 µg/mL (≈ 3.9 mM).

Question: What about the solubility ([6]; Methyl isobutyl ketone) of the same compound?
Answer: Its solubility is 5000 µg/mL (≈ 16.3 mM).

Question: And the solubility ([6]; tert-Butyl methyl ether)?
Answer: Its solubility is 2000 µg/mL (≈ 6.5 mM).

Question: What about the visual solubility ([6]; water, toluene, diisopropyloxide and methyl ethyl ketone) of the same compound?
Answer: Its visual solubility is “very low soluble”.

Question: And the “Assay, % LC” value [7, 16]?
Answer: The value was 97.2 % LC.

Question: And the “Assay, % LC” value [7, 17]?
Answer: Its value is 95.0 % LC.

Question: And the “Assay, % LC” value [7, 18]?
Answer: The value was 100.3 % LC.

Question: And the “Assay, % LC” value ([7]; 3 weeks at 40° C., formulation of Table 38)?
Answer: The value was 99.9 % LC.

Question: What about the “Assay, % LC” value [7, 19] of the same compound?
Answer: Its value is 94.1 % LC.

Question: What about the “Assay, % LC” value ([7]; Initial, elastomer-based formulation of Table 38 (tofacitinib citrate 1.0%, fingolimod HCl 0.01%)) of the same compound?
Answer: Its value is 99.9 % LC.

Question: Which “Dermis concentration, μg/g Based on the Mean (n = 5)” value ([5]; formulation of Table 43a) does the source give for `C[C@@H]1CCN(C(=O)CC#N)C[C@@H]1N(C)c1ncnc2[nH]ccc12` [tofacitinib] here?
Answer: The value was 34.9 µg/g.

Question: What about the “Epidermis concentration, μg/g Based on the Mean (n = 5)” value ([5]; formulation of Table 43a) of the same compound?
Answer: The value was 364.3 µg/g.

Question: What about the “estimated concentration of active in dermis” value [5, 15] of the same compound?
Answer: Its value is 34.9 µg/g.

Question: What about the “estimated concentration of active in epidermis” value [5, 15] of the same compound?
Answer: Its value is 364.3 µg/g.

Question: And the Cmax (in vivo)?
Answer: Its Cmax is 1.56 ng/mL.

Question: And the “Assay, % LC” value [7, 16]?
Answer: The value was 99.2 % LC.

Question: And the “Assay, % LC” value [7, 17]?
Answer: Its value is 98.6 % LC.

Question: What about the “Assay, % LC” value [7, 18] of the same compound?
Answer: Its value is 99.3 % LC.

Question: And the “Assay, % LC” value [7, 19]?
Answer: Its value is 99.1 % LC.

Question: With `CC1(C)O[C@@H]2C[C@H]3[C@@H]4CCC5=CC(=O)C=C[C@]5(C)[C@@]4(F)[C@@H](O)C[C@]3(C)[C@]2(C(=O)CO)O1` [triamcinolone acetonide] as the compound, how does the “Mean ADI values (AD Index) D 39” value [8] read?
Answer: The value was 0.88.

Question: What does the source list for Triamcinolone?
Answer: Body weight D39 Mean ([3]; mouse, in vivo): 17.7 g; Body weight D39 mean ([3]; mouse, in vivo): 17.1 g; Mean Body Weight Change Day 39 − Day 32, Study 1 ([3]; mouse, in vivo): −2.80; Mean Body Weight Change Day 39 − Day 32, Study 2 ([3]; mouse, in vivo): −2.06; Mean Body Weight Change d 39 − d 32 ([3]; mouse, in vivo): −2.80

Question: Which “affinity to four of the five S1P receptors (S1P1 and S1P3-5)” value [9] does the source give for fingolimod-phosphate here?
Answer: The value was 0.3 to 3.1 nM.
